In patent US11834460B2, “Imide-based modulators of proteolysis and associated methods of use” (YALE UNIVERSITY, priority 2018, dated 2023):

These compounds were tested on c-Myc (assay: c-Myc ELISA assay protocol in 22RV-1 cells). Details: 18 h, read-out: cMyc IC50.
Format: cell-based, human
Method: In each bioassay, cells were treated with varying amounts of compounds encompassed by the present disclosure, as shown in Table 1. The degradation of the following proteins were evaluated in this study: TANK-binding kinase 1 (TBK1), estrogen receptor α (ERα), bromodomain-containing protein 4 (BRD4), androgen receptor (AR), and c-Myc.
5. c-Myc ELISA Assay Protocol
22RV-1 cells were purchased from ATCC and cultured in RPMI+10% FBS media. Cells were harvested using trypsin (Gibco #25200-114), counted and seeded at 30,000 cells/well at a volume of 75 μL/well in RPMI +10% FBS media in 96-well plates. The cells were dosed with compounds diluted in 0.1% DMSO, incubated for 18 h then washed and lysed in 50 uL RIPA buffer (50 mM Tris pH8, 150 mM NaCl, 1% Tx-100, 0.1% SDS, 0.5% sodium deoxycholate) supplemented with protease and phosphatase inhibitors. The lysates were clarified at 4000 rpm at 4° C. for 10 minutes then aliquots were added into a 96-well ELISA plate of Novex Human c-myc ELISA kit from Life Technologies Catalog #KHO2041. 50 ul of c-Myc Detection antibody was added into every well, the plates incubated at room temperature for 3 hrs, then washed with ELISA wash buffer. 100 uL of the anti-rabbit IgG-HRP secondary antibody was added to each well and incubated at room temperature for 30 minutes. The plates were washed with ELISA wash buffer, 100 μL TMB added to each well, and then monitored every 5 minutes for a color change. 100 μL of stop solution is added and the plates read at 450 nm.

Structure (SMILES)	IC50
Cc1sc2c(c1C)C(c1ccc(Cl)cc1)=N[C@@H](CC(=O)NCCOCCOCCNc1cccc3c1C(=O)N(C1CCC(=O)NC1=O)C3=O)c1nnc(C)n1-2 (stereo partly drawn) [Compound 37, 2-[(9S)-7-(4-chlorophenyl)-4,5,13-trimethyl-3-thia-1,8,11,12-tetraazatricyclo [8.3.0.0^2,^6]trideca-2(6),4,7,10,12-pentaen-9-yl]-N-{2-[2-(2-{[2-(2,6-dioxopiperidin-3-yl)-1,3-dioxo-2,3-dihydro-1H-isoindol-4-yl]amino}ethoxy)ethoxy]ethyl} acetamide]	< 50 nM
Cc1sc2c(c1C)C(c1ccc(Cl)cc1)=N[C@@H](CC(=O)NCCCNc1cccc3c1C(=O)N(C1CCC(=O)NC1=O)C3=O)c1nnc(C)n1-2 (stereo partly drawn) [Compound 25, 2-((9S)-7-(4-chlorophenyl)-4,5,13-trimethyl-3-thia-1,8,11,12-tetraazatricyclo [8.3.0.02,6]trideca-2(6),4,7,10,12-pentaen-9-yl)-N-(3-((2-(2,6-dioxopiperidin-3-yl)-1,3-dioxo-2,3-dihydro-1H-isoindol-4-yl)amino)propyl) acetamide]	> 50 nM
Cc1sc2c(c1C)C(c1ccc(Cl)cc1)=N[C@@H](CC(=O)Nc1ccc(OCCCOCCNc3cccc4c3C(=O)N(C3CCC(=O)NC3=O)C4=O)c(F)c1)c1nnc(C)n1-2 (stereo partly drawn) [Compound 32, 2-((9S)-7-(4-chlorophenyl)-4,5,13-trimethyl-3-thia-1,8,11,12-tetraazatricyclo [8.3.0.02,6]trideca-2(6),4,7,10, 12-pentaen-9-yl)-N-(4-(3-(2-((2-(2,6-dioxopiperidin-3-yl)-1,3-dioxo-2,3-dihydro-1H-isoindol-4-yl)amino)ethoxy)propoxy)-3-fluorophenyl) acetamide]	< 50 nM
Cc1sc2c(c1C)C(c1ccc(Cl)cc1)=N[C@@H](CC(=O)Nc1cnc(-c3ccc(OCCCNc4cccc5c4C(=O)N(C4CCC(=O)NC4=O)C5=O)cc3)nc1)c1nnc(C)n1-2 (stereo partly drawn) [Compound 31, 2-((9S)-7-(4-chlorophenyl)-4,5,13-trimethyl-3-thia-1,8,11,12-tetraazatricyclo [8.3.0.02,6]trideca-2(6),4,7,10, 12-pentaen-9-yl)-N-(2-(4-(3-((2-(2,6-dioxopiperidin-3-yl)-1,3-dioxo-2,3-dihydro-1H-isoindol-4-yl)amino)propoxy)phenyl)pyrimidin-5-yl)acetamide]	< 50 nM
Cc1sc2c(c1C)C(c1ccc(Cl)cc1)=N[C@@H](CC(=O)Nc1ccc(OCCCCOCCCNc3cccc4c3C(=O)N(C3CCC(=O)NC3=O)C4=O)cc1F)c1nnc(C)n1-2 (stereo partly drawn) [Compound 33, 2-((9S)-7-(4-chlorophenyl)-4,5,13-trimethyl-3-thia-1,8,11,12-tetraazatricyclo [8.3.0.02,6]trideca-2(6),4,7,10, 12-pentaen-9-yl)-n-(4-(4-(3-((2-(2,6-dioxopiperidin-3-yl)-1,3-dioxo-2,3-dihydro-1h-isoindol-4-yl)amino)propoxy)butoxy)-2-fluorophenyl) acetamide]	< 50 nM
Cc1sc2c(c1C)C(c1ccc(Cl)cc1)=N[C@@H](CC(=O)N[C@H](C)c1ccc(OCCOCCNc3cccc4c3C(=O)N(C3CCC(=O)NC3=O)C4=O)cc1)c1nnc(C)n1-2 (stereo partly drawn) [Compound 29, 2-((9S)-7-(4-chlorophenyl)-4,5,13-trimethyl-3-thia-1,8,11,12-tetraazatricyclo [8.3.0.02,6]trideca-2(6),4,7,10, 12-pentaen-9-yl) N-((1R)-1-(4-(2-(2-((2-(2,6-dioxopiperidin-3-yl)-1,3-dioxo-2,3-dihydro-1H-isoindol-4-yl)amino)ethoxy)ethoxy)phenyl)ethyl) acetamide]	< 50 nM
Cc1sc2c(c1C)C(c1ccc(Cl)cc1)=N[C@@H](CC(=O)Nc1ccc(OCCCCOCCCNc3cccc4c3C(=O)N(C3CCC(=O)NC3=O)C4=O)c(F)c1)c1nnc(C)n1-2 (stereo partly drawn) [Compound 34, 2-((9S)-7-(4-chlorophenyl)-4,5,13-trimethyl-3-thia-1,8,11,12-tetraazatricyclo [8.3.0.02,6]trideca-2(6),4,7,10, 12-pentaen-9-yl)-N-(4-(4-(3-((2-(2,6-dioxopiperidin-3-yl)-1,3-dioxo-2,3-dihydro-1H-isoindol-4-yl)amino)propoxy)butoxy)-3-fluorphenyl) acetamide]	< 50 nM
Cc1sc2c(c1C)C(c1ccc(Cl)cc1)=N[C@@H](CC(=O)NCCOCCNc1cccc3c1CN(C1CCC(=O)NC1=O)C3=O)c1nnc(C)n1-2 (stereo partly drawn) [Compound 39, 2-[(9S)-7-(4-chlorophenyl)-4,5,13-trimethyl-3-thia-1,8,11,12-tetraazatricyclo [8.3.0.0^2,^6]trideca-2(6),4,7,10,12-pentaen-9-yl]-N-[2-(2-{[2-(2,6-dioxopiperidin-3-yl)-1-oxo-2,3-dihydro-1H-isoindol-4-yl]amino}ethoxy)ethyl]acetamide]	> 50 nM
Cc1sc2c(c1C)C(c1ccc(Cl)cc1)=N[C@@H](CC(=O)N[C@@H](C)c1ccc(-c3ncc(OCCCNc4cccc5c4C(=O)N(C4CCC(=O)NC4=O)C5=O)cn3)cc1)c1nnc(C)n1-2 (stereo partly drawn) [Compound 40, 2-((S)-4-(4-chlorophenyl)-2,3,9-trimethyl-6H-thieno[3,2-f][1,2,4]triazolo[4,3-a][1,4]diazepin-6-yl)-N-((1S)-1-(4-(5-(3-(2-(2,6-dioxopiperidin-3-yl)-1,3-dioxoisoindolin-4-ylamino)propoxy)pyrimidin-2-yl)phenyl)ethyl)acetamide]	< 50 nM
Cc1sc2c(c1C)C(c1ccc(Cl)cc1)=N[C@@H](CC(=O)NCCCCNc1cccc3c1CN(C1CCC(=O)NC1=O)C3=O)c1nnc(C)n1-2 (stereo partly drawn) [Compound 47, 2-[(9S)-7-(4-chlorophenyl)-4,5,13-trimethyl-3-thia-1,8,11,12-tetraazatricyclo [8.3.0.0^2,^6]trideca-2(6),4,7,10,12-pentaen-9-yl]-N-(4-{[2-(2,6-dioxopiperidin-3-yl)-1-oxo-2,3-dihydro-1H-isoindol-4-yl]amino}butyl) acetamide]	> 50 nM

Other lines, results leading:

IC50	Structure (SMILES)
> 50 nM	Cc1sc2c(c1C)C(c1ccc(Cl)cc1)=N[C@@H](CC(=O)NCCOCCNc1cccc3nc(C)n(C4CCC(=O)NC4=O)c(=O)c13)c1nnc(C)n1-2 (stereo partly drawn) [Compound 53, 2-[(9S)-7-(4-chlorophenyl)-4,5,13-trimethyl-3-thia-1,8,11,12-tetraazatricyclo [8.3.0.0^2,^6]trideca-2(6),4,7,10,12-pentaen-9-yl]-N-[2-(2-{[3-(2,6-dioxopiperidin-3-yl)-2-methyl-4-oxo-3,4-dihydroquinazolin-5-yl]amino}ethoxy)ethyl]acetamide]
< 50 nM	Cc1sc2c(c1C)C(c1ccc(Cl)cc1)=N[C@@H](CC(=O)NCCCOCCCNc1cccc3c1CN(C1CCC(=O)NC1=O)C3=O)c1nnc(C)n1-2 (stereo partly drawn) [Compound 54, 2-[(9S)-7-(4-chlorophenyl)-4,5,13-trimethyl-3-thia-1,8,11,12-tetraazatricyclo [8.3.0.0^2,^6]trideca-2(6),4,7,10,12-pentaen-9-yl]-N-[3-(3-{[2-(2,6-dioxopiperidin-3-yl)-1-oxo-2,3-dihydro-1H-isoindol-4-yl]amino}propoxy)propyl]acetamide]
< 50 nM	Cc1sc2c(c1C)C(c1ccc(Cl)cc1)=N[C@@H](CC(=O)N[C@@H](C)c1ccc(OCCCOCCNc3cccc4c3C(=O)N(C3CCC(=O)NC3=O)C4=O)cc1)c1nnc(C)n1-2 (stereo partly drawn) [Compound 41, 2-[9S)-7-(4-chlorophenyl)-4,5,13-trimethyl-3-thia-1,8,11,12-tetraazatricyclo [8.3.0.0^2,^6]trideca-2(6),4,7,10,12-pentaen-9-yl]-N-[(1S)-1-{4-[3-(2-{[2-(2,6-dioxopiperidin-3-yl)-1,3-dioxo-2,3-dihydro-1H-isoindol-4-yl]amino}ethoxy)propoxyphenyl}ethyl]acetamide]
> 50 nM	Cc1sc2c(c1C)C(c1ccc(Cl)cc1)=N[C@@H](CC(=O)N[C@H]1CCN(C(=O)c3ccc(NCCNc4cccc5c4C(=O)N(C4CCC(=O)NC4=O)C5=O)cc3)C1)c1nnc(C)n1-2 (stereo partly drawn) [Compound 52, 2-[(9S)-7-(4-chlorophenyl)-4,5,13-trimethyl-3-thia-1,8,11,12-tetraazatricyclo [8.3.0.0^2,^6]trideca-2(6),4,7,10,12-pentaen-9-yl]-N-[(3S)-1-{4-[(2-{[2-(2,6-dioxopiperidin-3-yl)-1,3-dioxo-2,3-dihydro-1H-isoindol-4-yl]amino}ethyl)amino]benzoyl}pyrrolidin-3-yl]acetamide]
> 50 nM	Cc1sc2c(c1C)C(c1ccc(Cl)cc1)=N[C@@H](CC(=O)N[C@H]1CCN(C(=O)c3ccc(OCCNc4cccc5c4CN(C4CCC(=O)NC4=O)C5=O)cc3)C1)c1nnc(C)n1-2 (stereo partly drawn) [Compound 59, 2-[(9S)-7-(4-chlorophenyl)-4,5,13-trimethyl-3-thia-1,8,11,12-tetraazatricyclo [8.3.0.0^2,^6]trideca-2(6),4,7,10,12-pentaen-9-yl]-N-[(3S)-1-[4-(2-{[2-(2,6-dioxopiperidin-3-yl)-1-oxo-2,3-dihydro-1H-isoindol-4-yl]amino}ethoxy)benzoyl]pyrrolidin-3-yl]acetamide]
> 50 nM	Cc1sc2c(c1C)C(c1ccc(Cl)cc1)=N[C@@H](CC(=O)NCCCCNc1cccc3c1C(=O)N(C1CCC(=O)NC1=O)C3=O)c1nnc(C)n1-2 (stereo partly drawn) [Compound 43, 2-[(9S)-7-(4-chlorophenyl)-4,5,13-trimethyl-3-thia-1,8,11,12-tetraazatricyclo [8.3.0.0^2,^6]trideca-2(6),4,7,10,12-pentaen-9-yl]-N-(4-{[2-(2,6-dioxopiperidin-3-yl)-1,3-dioxo-2,3-dihydro-1H-isoindol-4-yl]amino}butyl) acetamide]
